Data: ChEMBL document CHEMBL5625191, “A review of progress in o-aminobenzamide-based HDAC inhibitors with dual targeting capabilities for cancer therapy” (Eur J Med Chem, 2023)
Blank lines part the entries; values can stand above or below the compound they belong to.

Columns and labels:
CT26 = experiment: Antitumor activity against mouse CT26 cells xenografted in mouse assessed as reduction in tumor volume; type: functional; parameters: scale not given: the % may be the effect or the level left
A549 [1] = experiment: Antiproliferative activity against human A549 cells assessed as inhibition of cell growth incubated for 48 hrs by CCK-8 assay; type: functional, cell-based; details: A549, 48 h
Histone deacetylase [2] = experiment: Inhibition of HDAC (unknown origin); type: protein assay, Homo sapiens
[3] = Antiproliferative activity against human SCCIC1 cells assessed as inhibition of cell growth; type: functional, cell-based
[4] = Antiproliferative activity against human MET-1 cells assessed as inhibition of cell growth; type: functional, cell-based
SK-MEL-1 = experiment: Antitumor activity against human SK-MEL-1 cells assessed as tumor growth inhibition at 30 mg/kg, ip administered for 28 days; type: functional; details: SK-MEL-1, 672 h, time 28 day, read-out: TGI
Histone deacetylase 2 [5] = target: T1, Histone deacetylase 2 (Homo sapiens, UniProt Q92769); experiment: Inhibition of HDAC2 (unknown origin)
Histone deacetylase 1 [6] = target: T2, Histone deacetylase 1 (Homo sapiens, UniProt Q13547); experiment: Inhibition of HDAC1 (unknown origin)
HCT-116 [7] = experiment: Antiproliferative activity against human HCT-116 cells assessed as inhibition of cell growth; type: functional, cell-based
Histone deacetylase [8] = experiment: Inhibition of HDAC in human HeLa nuclear extract using Boc-Lys(Ac)-AMC or Boc-Lys(Tfa)-AMC as substrate preincubated for 5 mins followed by substrate addition and measured after 30 mins by fluorescence assay; type: cell-free
Ephrin type-A receptor 2 = Ephrin type-A receptor 2 (Homo sapiens, UniProt P29317); experiment: Inhibition of EphA2 (unknown origin) incubated for 30 mins by TR-FRET assay
HCT-116 [9] = experiment: Antiproliferative activity against human HCT-116 cells assessed as inhibition of cell growth incubated for 48 hrs by MTT assay; type: functional, cell-based; details: HCT-116, 48 h
MCF7 = experiment: Antiproliferative activity against human MCF7 cells assessed as inhibition of cell growth incubated for 48 hrs by MTT assay; type: functional, cell-based; details: MCF7, 48 h
MGC-803 = experiment: Antiproliferative activity against human MGC-803 cells assessed as inhibition of cell growth; type: functional, cell-based
KYSE-450 = experiment: Antiproliferative activity against human KYSE-450 cells assessed as inhibition of cell growth; type: functional, cell-based
Tubulin = experiment: Inhibition of tubulin polymerization (unknown origin); type: protein-complex assay, Homo sapiens
Histone deacetylase 1 [10] = target: T2, Histone deacetylase 1; experiment: Inhibition of HDAC1 in human HeLa nuclear extract using Boc-Lys(Ac)-AMC or Boc-Lys(Tfa)-AMC as substrate preincubated for 5 mins followed by substrate addition and measured after 30 mins by fluorescence assay; type: cell-free
Histone deacetylase 2 [11] = target: T1, Histone deacetylase 2; experiment: Inhibition of HDAC2 in human HeLa nuclear extract using Boc-Lys(Ac)-AMC or Boc-Lys(Tfa)-AMC as substrate preincubated for 5 mins followed by substrate addition and measured after 30 mins by fluorescence assay; type: cell-free
Histone deacetylase 3 = Histone deacetylase 3 (Homo sapiens, UniProt O15379); experiment: Inhibition of HDAC3 in human HeLa nuclear extract using Boc-Lys(Ac)-AMC or Boc-Lys(Tfa)-AMC as substrate preincubated for 5 mins followed by substrate addition and measured after 30 mins by fluorescence assay; type: cell-free
HeLa = experiment: Antiproliferative activity against human HeLa cells assessed as inhibition of cell growth incubated for 48 hrs by MTT assay; type: functional, cell-based
PC-3 = experiment: Antiproliferative activity against human PC-3 cells assessed as inhibition of cell growth incubated for 48 hrs by MTT assay; type: functional, cell-based; details: PC-3, 48 h
HEL = experiment: Antiproliferative activity against human HEL cells assessed as inhibition of cell growth incubated for 48 hrs by MTT assay; type: functional, cell-based
MOLT-4 = experiment: Antiproliferative activity against human MOLT-4 cells assessed as inhibition of cell growth incubated for 48 hrs by MTT assay; type: functional, cell-based; details: MOLT-4, 48 h
Jurkat = experiment: Antiproliferative activity against human Jurkat cells assessed as inhibition of cell growth incubated for 48 hrs by MTT assay; type: functional, cell-based
A549 [12] = experiment: Antiproliferative activity against human A549 cells assessed as inhibition of cell growth incubated for 48 hrs by MTT assay; type: functional, cell-based; details: A549, 48 h
A549 [13] = experiment: Antiproliferative activity against human A549 cells assessed as inhibition of cell growth incubated for 72 hrs by CCK-8 assay; type: functional, cell-based; details: A549, 72 h
HepG2 = experiment: Antiproliferative activity against human HepG2 cells assessed as inhibition of cell growth incubated for 72 hrs by CCK-8 assay; type: functional, cell-based; details: HepG2, 72 h
SK-N-BE(2) = experiment: Antiproliferative activity against human SK-N-BE(2) cells assessed as inhibition of cell growth incubated for 72 hrs by CCK-8 assay; type: functional, cell-based; details: SKNBE2, 72 h
NCI-H2228 = experiment: Antiproliferative activity against human NCI-H2228 cells assessed as inhibition of cell growth incubated for 72 hrs by CCK-8 assay; type: functional, cell-based; details: NCI-H2228, 72 h
HCT-116 [14] = experiment: Antitumor activity against human HCT-116 cells xenografted in BALB/c nude mouse assessed as increase in increment ratio at 30 mg/kg, po administered for 3 days; type: functional; details: time 3 day
HCT-116 [15] = experiment: Antitumor activity against human HCT-116 cells xenografted in BALB/c nude mouse assessed as tumor growth inhibition at 30 mg/kg, po administered for 3 days; type: functional; details: HCT-116, 72 h, time 3 day, read-out: TGI

T2 sequence (Q13547 whole entry): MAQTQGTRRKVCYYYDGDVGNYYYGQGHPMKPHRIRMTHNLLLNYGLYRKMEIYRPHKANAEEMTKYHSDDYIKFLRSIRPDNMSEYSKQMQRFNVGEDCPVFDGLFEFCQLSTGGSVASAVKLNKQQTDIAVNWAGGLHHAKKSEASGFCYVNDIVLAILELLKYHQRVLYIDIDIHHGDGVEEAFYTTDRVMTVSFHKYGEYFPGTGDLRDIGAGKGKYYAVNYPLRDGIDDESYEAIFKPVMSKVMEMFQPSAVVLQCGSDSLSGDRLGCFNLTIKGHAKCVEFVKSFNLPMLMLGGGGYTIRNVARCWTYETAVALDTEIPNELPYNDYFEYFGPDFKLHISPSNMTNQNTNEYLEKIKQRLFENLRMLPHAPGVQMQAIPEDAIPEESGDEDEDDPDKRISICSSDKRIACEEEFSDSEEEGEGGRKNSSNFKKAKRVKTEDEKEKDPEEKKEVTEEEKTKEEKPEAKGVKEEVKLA
T1 sequence (Q92769 whole entry): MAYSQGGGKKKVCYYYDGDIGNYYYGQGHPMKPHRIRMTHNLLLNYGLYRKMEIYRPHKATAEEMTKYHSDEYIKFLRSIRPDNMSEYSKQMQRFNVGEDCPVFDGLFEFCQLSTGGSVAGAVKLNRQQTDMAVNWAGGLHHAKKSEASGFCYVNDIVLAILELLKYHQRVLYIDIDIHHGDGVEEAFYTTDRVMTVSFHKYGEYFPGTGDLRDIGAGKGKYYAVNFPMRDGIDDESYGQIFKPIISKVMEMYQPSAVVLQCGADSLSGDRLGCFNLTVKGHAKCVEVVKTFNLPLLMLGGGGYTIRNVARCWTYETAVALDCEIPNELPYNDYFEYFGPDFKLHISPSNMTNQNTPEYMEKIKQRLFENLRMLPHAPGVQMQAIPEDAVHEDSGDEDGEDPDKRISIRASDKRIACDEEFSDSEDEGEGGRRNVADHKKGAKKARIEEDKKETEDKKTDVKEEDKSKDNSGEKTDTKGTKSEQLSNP
Histone deacetylase 3, sequence (O15379 whole entry): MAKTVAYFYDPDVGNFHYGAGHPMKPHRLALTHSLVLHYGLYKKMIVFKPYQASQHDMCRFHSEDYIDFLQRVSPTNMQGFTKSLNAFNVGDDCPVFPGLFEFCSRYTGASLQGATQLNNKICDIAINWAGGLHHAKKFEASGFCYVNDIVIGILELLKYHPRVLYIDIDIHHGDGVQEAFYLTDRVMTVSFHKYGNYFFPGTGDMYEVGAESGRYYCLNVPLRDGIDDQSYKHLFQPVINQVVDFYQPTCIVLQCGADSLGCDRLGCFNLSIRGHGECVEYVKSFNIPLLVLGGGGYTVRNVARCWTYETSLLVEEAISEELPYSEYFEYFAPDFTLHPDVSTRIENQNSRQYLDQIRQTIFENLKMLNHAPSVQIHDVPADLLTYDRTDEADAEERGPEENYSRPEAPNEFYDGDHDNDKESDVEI
Ephrin type-A receptor 2, sequence (P29317 whole entry): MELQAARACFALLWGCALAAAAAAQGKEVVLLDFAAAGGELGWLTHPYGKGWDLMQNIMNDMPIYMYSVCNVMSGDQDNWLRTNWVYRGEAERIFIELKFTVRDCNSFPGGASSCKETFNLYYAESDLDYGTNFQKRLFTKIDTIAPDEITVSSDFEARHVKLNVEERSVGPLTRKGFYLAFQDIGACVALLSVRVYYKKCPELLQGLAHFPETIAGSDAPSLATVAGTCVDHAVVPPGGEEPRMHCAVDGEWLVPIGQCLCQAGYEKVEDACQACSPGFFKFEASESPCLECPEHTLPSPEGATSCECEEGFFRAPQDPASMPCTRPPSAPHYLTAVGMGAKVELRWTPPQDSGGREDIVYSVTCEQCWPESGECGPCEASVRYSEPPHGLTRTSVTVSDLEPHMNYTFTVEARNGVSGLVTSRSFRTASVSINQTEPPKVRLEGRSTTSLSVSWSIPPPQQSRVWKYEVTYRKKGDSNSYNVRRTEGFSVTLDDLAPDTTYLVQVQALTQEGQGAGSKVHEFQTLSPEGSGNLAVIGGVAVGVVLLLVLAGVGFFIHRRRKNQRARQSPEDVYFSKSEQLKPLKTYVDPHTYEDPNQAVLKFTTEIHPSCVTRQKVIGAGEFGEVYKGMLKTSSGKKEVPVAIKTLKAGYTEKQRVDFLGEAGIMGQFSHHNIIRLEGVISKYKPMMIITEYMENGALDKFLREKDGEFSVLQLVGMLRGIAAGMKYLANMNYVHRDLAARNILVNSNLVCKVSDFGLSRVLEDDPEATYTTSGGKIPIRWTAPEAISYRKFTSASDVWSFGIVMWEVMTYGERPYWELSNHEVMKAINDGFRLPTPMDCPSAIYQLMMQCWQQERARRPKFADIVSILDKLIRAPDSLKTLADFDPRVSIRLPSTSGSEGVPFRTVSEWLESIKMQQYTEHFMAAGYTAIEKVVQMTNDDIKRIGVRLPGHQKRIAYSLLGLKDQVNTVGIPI

IC50 (A549 [1]): 7.8 nM
Structure (SMILES): Cn1cc(-c2ccc(S(=O)(=O)n3ccc(/C=C/C(=O)Nc4ccccc4N)c3)cc2)cn1 [DOMATINOSTAT]
Activity (CT26): 53%

IC50 (Histone deacetylase [2]): 15 µM
Structure (SMILES): CCN1CCN(c2cc(Nc3ncc(C(=O)Nc4ccccc4N)s3)ncn2)CC1

Structure (SMILES): Nc1ccccc1NC(=O)c1ccc(CCCC(=O)Nc2ccc([C@@H]3C[C@H]3N)cc2)cc1
IC50 [3]: 41 nM
IC50 [4]: 6 nM
inhibition in vivo at 30 mg/kg (SK-MEL-1): 61%

IC50 (Histone deacetylase 2 [5]): 2.14 µM
IC50 (Histone deacetylase 1 [6]): 400 nM
IC50 (HCT-116 [7]): 2150 nM
Structure (SMILES): CN1c2ccc(NCc3ccc(C(=O)Nc4ccccc4N)cc3)cc2C(=O)N2CCc3c([nH]c4ccc(O)cc34)[C@H]21

IC50 (Histone deacetylase [8]): 1.52 µM
IC50 (Ephrin type-A receptor 2): 570 nM
IC50 (HCT-116 [9]): 5290 nM
IC50 (MCF7): 7.42 µM
Structure (SMILES): COc1ccc(C(=O)Nc2ccc(NC(=O)Nc3ccccc3N)cc2)cc1

IC50 (Histone deacetylase 1 [6]): 525 nM
IC50 (MGC-803): 30 nM
IC50 (HCT-116 [7]): 172 nM
IC50 (Tubulin): 3.64 µM
Structure (SMILES): COc1ccc(CN(C(=O)Cc2ccc(C(=O)Nc3ccccc3N)cc2)c2cc(OC)c(OC)c(OC)c2)cc1O
IC50 (KYSE-450): 254 nM

IC50 (HCT-116 [9]): 790 nM
IC50 (Histone deacetylase 1 [10]): 660 nM
IC50 (Histone deacetylase 2 [11]): 1200 nM
IC50 (Histone deacetylase 3): 500 nM
IC50 (HeLa): 1560 nM
IC50 (PC-3): 1920 nM
IC50 (MOLT-4): 720 nM
IC50 (Jurkat): 470 nM
IC50 (A549 [12]): 1550 nM
Structure (SMILES): Nc1ccccc1NC(=O)CCCCCCCOc1no[n+]([O-])c1S(=O)(=O)c1ccccc1
IC50 (HEL): 420 nM

IC50 (A549 [13]): 2 nM
IC50 (HepG2): 10 nM
IC50 (SK-N-BE(2)): 3 nM
IC50 (NCI-H2228): 110 nM
Structure (SMILES): CC(C)S(=O)(=O)c1ccccc1Nc1nc(Nc2ccc(C(=O)Nc3ccccc3N)cc2)ncc1Cl

IC50 (HCT-116 [9]): 930 nM
IC50 (Histone deacetylase 1 [10]): 620 nM
IC50 (Histone deacetylase 2 [11]): 1460 nM
IC50 (Histone deacetylase 3): 620 nM
IC50 (HeLa): 1230 nM
IC50 (PC-3): 2690 nM
IC50 (MOLT-4): 590 nM
IC50 (Jurkat): 540 nM
IC50 (A549 [12]): 1030 nM
Structure (SMILES): Nc1ccccc1NC(=O)CCCCOc1no[n+]([O-])c1S(=O)(=O)c1ccccc1
IC50 (HEL): 320 nM
T/C (HCT-116 [14]): 57%
inhibition in vivo at 30 mg/kg (HCT-116 [15]): 36%

IC50 (Histone deacetylase 2 [5]): 9.37 µM
IC50 (Histone deacetylase 1 [6]): 2660 nM
IC50 (HCT-116 [7]): 7820 nM
Structure (SMILES): COc1ccc2[nH]c3c(c2c1)CCN1C(=O)c2cc(NCc4ccc(C(=O)Nc5ccccc5N)cc4)ccc2N(C)[C@H]31
